Structures can show the parent of a compound that is named as a salt. Where two headings read alike, the source gives them in different places.
Molecular target: hNav1.7 (Homo sapiens (Human), UniProt Q15858)
Assay: Tritiated sulfonamide competitive binding to membranes from cells expressing hNav1.7 and the β1 subunit;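 further: Filter-bound radioactivity counted by liquid scintillation, nonspecific binding defined with excess unlabelled ligand, IC50 fitted to percent inhibition of specific binding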
[1] = read-out: Ligand Binding Assay, 100 pM [3H]compound, membranes with hNav1.7 and β1 subunit, 18 h, room temperature

hNav1.7, sequence (Q15858 other isoform, or with tags, fused parts or gaps): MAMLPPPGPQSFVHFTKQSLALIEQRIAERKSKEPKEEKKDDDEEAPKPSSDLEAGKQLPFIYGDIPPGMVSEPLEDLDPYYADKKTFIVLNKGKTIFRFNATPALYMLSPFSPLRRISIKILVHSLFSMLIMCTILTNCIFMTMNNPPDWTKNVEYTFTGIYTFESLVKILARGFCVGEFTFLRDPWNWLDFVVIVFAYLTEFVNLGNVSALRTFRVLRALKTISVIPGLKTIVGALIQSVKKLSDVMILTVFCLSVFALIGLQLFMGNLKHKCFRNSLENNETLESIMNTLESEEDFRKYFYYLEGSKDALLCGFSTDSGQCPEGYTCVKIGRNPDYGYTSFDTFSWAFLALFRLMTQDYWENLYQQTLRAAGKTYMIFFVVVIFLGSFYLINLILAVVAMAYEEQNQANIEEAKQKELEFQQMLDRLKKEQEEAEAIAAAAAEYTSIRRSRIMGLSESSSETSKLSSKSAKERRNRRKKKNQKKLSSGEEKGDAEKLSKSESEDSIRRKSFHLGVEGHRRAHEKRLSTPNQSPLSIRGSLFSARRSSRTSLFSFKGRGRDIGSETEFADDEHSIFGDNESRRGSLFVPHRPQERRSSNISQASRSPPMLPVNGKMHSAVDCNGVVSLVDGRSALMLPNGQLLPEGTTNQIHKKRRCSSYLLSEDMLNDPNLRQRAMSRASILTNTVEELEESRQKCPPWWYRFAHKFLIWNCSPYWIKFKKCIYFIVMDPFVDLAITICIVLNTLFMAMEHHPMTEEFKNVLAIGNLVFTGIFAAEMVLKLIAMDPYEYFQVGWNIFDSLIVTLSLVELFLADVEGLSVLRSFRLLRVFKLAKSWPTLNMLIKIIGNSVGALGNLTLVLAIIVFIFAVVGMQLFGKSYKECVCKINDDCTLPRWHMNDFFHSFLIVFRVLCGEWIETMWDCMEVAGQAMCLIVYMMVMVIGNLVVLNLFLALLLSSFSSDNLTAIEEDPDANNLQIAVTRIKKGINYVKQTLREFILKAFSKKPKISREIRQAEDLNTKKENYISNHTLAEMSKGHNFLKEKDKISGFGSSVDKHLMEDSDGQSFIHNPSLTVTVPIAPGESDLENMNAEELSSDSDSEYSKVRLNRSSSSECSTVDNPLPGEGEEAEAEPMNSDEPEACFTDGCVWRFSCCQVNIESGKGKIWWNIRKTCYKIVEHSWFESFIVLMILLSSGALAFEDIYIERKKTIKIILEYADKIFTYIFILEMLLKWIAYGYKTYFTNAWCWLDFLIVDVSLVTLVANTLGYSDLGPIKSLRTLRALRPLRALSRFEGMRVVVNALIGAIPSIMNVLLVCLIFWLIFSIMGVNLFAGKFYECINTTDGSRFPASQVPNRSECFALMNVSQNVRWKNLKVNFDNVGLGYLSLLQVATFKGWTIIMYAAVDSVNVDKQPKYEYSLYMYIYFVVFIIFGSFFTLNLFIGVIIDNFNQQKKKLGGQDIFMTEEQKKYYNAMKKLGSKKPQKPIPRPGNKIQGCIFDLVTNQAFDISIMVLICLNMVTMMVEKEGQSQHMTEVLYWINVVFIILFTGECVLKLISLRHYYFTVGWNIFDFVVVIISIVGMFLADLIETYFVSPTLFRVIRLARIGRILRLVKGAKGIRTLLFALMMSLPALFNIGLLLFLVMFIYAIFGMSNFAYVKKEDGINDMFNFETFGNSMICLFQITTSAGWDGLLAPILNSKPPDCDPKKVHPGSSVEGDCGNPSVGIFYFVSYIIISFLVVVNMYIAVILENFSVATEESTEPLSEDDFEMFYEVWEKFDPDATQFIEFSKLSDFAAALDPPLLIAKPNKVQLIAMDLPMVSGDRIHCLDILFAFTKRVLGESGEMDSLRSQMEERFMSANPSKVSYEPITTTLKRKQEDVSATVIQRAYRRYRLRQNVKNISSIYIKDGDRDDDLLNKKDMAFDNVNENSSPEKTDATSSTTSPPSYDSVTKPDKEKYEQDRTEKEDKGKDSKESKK
hNav1.7, sequence (Q07699 19-218 partner): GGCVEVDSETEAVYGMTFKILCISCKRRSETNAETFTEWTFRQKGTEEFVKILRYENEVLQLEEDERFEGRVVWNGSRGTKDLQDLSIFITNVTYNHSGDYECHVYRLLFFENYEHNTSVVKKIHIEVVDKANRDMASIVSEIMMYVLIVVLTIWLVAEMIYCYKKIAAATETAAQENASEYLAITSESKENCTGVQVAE

| IC50 [1] [nM] | Structure (SMILES) | other results |
| --- | --- | --- |
| 4.2 | O=C(NS(=O)(=O)C1CC1)c1cc(C2CC2)c(OCC2CCN(Cc3cc(C(F)(F)F)cc(Cl)c3F)CC2)cc1F [Example 582, 4-((1-(3-chloro-2-fluoro-5-(trifluoromethyl)benzyl)piperidin-4-yl)methoxy)-5-cyclopropyl-N-(cyclopropylsulfonyl)-2-fluorobenzamide] | – |
| 16.3 | CS(=O)(=O)NC(=O)c1cc(C2CC2)c(OCC2CCN(Cc3ccc(F)cc3Cl)CC2)cc1F [Example 105, 4-((1-(2-Chloro-4-fluorobenzyl)piperidin-4-yl)methoxy)-5-cyclopropyl-2-fluoro-N-(methylsulfonyl)benzamide] | – |
| 3600 | CS(=O)(=O)NC(=O)c1cc(C2CC2)c(OCC2CN(Cc3ccccc3)C2)cc1F [Example 74, -((1-benzylazetidin-3-yl)methoxy)-5-cyclopropyl-2-fluoro-N-(methylsulfonyl)benzamide] | – |
| 9.15 | CS(=O)(=O)NC(=O)c1cc(C2CC2)c(OCC2CN([C@@H](c3ccccc3)c3ccc(F)cc3)C2)cc1F [Example 144, (S)-5-Cyclopropyl-2-fluoro-4-((1-((4-fluorophenyl)(phenyl)methyl)azetidin-3-yl)methoxy)-N-(methylsulfonyl)benzamide] | – |
| 10.5 | COC[C@H](c1cc(Cl)cc(Cl)c1)N1CCC[C@@H](Oc2cc(F)c(C(=O)NS(C)(=O)=O)cc2C2CC2)C1 [Example 448, 5-cyclopropyl-4-(((R)-1-((S)-1-(3,5-dichlorophenyl)-2-methoxyethyl)piperidin-3-yl)oxy)-2-4-N-(methylsulfonyl)benzamide, trifluoroacetic acid salt] | – |
| 750 | CC(C)(C)OC(=O)N1CC(COc2cc(F)c(C(=O)NS(C)(=O)=O)cc2C2CC2)C1 [Example 72, tert-butyl 3-((2-cyclopropyl-5-fluoro-4-((methylsulfonyl)carbamoyl)phenoxy)methyl)azetidine-1-carboxylate] | – |
| 270 | COc1cccc(CN2CCC(C)(COc3cc(F)c(C(=O)NS(C)(=O)=O)cc3C3CC3)CC2)n1 [Example 576] | – |
| 16.3 | CS(=O)(=O)NC(=O)c1cc(C2CC2)c(OCC2CCN(S(=O)(=O)c3ccc4ccccc4c3)CC2)cc1F [Example 388, 5-cyclopropyl-2-fluoro-N-(methylsulfonyl)-4-((1-(naphthalen-2-ylsulfonyl)piperidin-4-yl)methoxy)benzamide] | – |
| 17.6 | CS(=O)(=O)NC(=O)c1cc(Cl)c(OCC2CCN(Cc3cc(Cl)cc(OC(F)(F)F)c3)CC2)cc1F [Example 406, 5-chloro-4-((1-(3-chloro-5-(trifluoromethoxy)benzyl)piperidin-4-yl)methoxy)-2-fluoro-N-(methylsulfonyl)benzamide, trifluoroacetic acid salt] | – |
| 49.5 | CC(c1cc(F)cc(F)c1)N1CC(COc2cc(F)c(C(=O)NS(C)(=O)=O)cc2C2CC2)C1 (stereo not drawn) [Example 86, 5-Cyclopropyl-4-((1-(1-(3,5-difluorophenyl)ethyl)azetidin-3-yl)methoxy)-2-fluoro-N-(methylsulfonyl)benzamide] | – |
| 5 | O=C(NS(=O)(=O)C1CC1)c1cc(C2CC2)c(CN2CCO[C@H](Cc3ccc(Cl)c(Cl)c3)C2)cc1F [Example 460, (R)-5-cyclopropyl-N-(cyclopropylsulfonyl)-4-((2-(3,4-dichlorobenzyl)morpholino)methyl)-2-fluorobenzamide] | – |
| 6 | COC[C@@H](c1cc(Cl)cc(Cl)c1)N1CCC[C@@H](Oc2cc(F)c(C(=O)NS(C)(=O)=O)cc2C2CC2)C1 [Example 447, 5-cyclopropyl-4-(((R)-1-((R)-1-(3,5-dichlorophenyl)-2-methoxyethyl)piperidin-3-yl)oxy)-2-fluoro-N-(methylsulfonyl)benzamide] | – |
| 6.1 | CCS(=O)(=O)NC(=O)c1cc(C2CC2)c(OCC2(C)CN(C(c3ccccc3)c3ccccc3)C2)cc1F [Example 69, 4-((1-benzhydryl-3-methylazetidin-3-yl)methoxy)-5-cyclopropyl-N-(ethylsulfonyl)-2-fluorobenzamide] | – |
| 5.9 | C[C@@H](c1cc(F)cc(Cl)c1)N1CCC(COc2cc(F)c(C(=O)NS(C)(=O)=O)cc2C2CC2)CC1 (single isomer, unassigned) [Example 231] | – |
| 21.8 | O=C(NS(=O)(=O)C1CC1)c1cc(C2CC2)c(CN2CCC(OCc3ccc(F)cc3Cl)CC2)cc1F [Example 480, 4-((4-((2-chloro-4-fluorobenzyl)oxy)piperidin-1-yl)methyl)-5-cyclopropyl-N-(cyclopropylsulfonyl)-2-fluorobenzamide, trifluoroacetic acid salt] | – |

More lines, now with the values behind:

| Structure (SMILES) | IC50 [1] [nM] | other results |
| --- | --- | --- |
| O=C(NS(=O)(=O)C1CC1)c1cc(C2CC2)c(O[C@@H]2CCCN(Cc3ccc(Cl)c(Cl)c3)C2)cc1F [Example 18, (R)-5-cyclopropyl-N-(cyclopropylsulfonyl)-4-((1-(3,4-dichlorobenzyl)-piperidin-3-yl)oxy)-2-fluorobenzamide] | – | IC50: 2.6 nM |
| Cn1nc(-c2ccccc2)cc1CN1CCC[C@@H](Oc2cc(F)c(C(=O)NS(C)(=O)=O)cc2C2CC2)C1 [Example 12, (R)-5-cyclopropyl-2-fluoro-4-((1-((1-methyl-3-phenyl-1H-pyrazol-5-yl)methyl)piperidin-3-yl)oxy)-N-(methylsulfonyl)benzamide] | – | IC50: 11.3 nM |
| O=C(NS(=O)(=O)C1CC1)c1cc(C2CC2)c(CN2[C@@H]3CC[C@H]2C[C@@H](Oc2cc(C(F)(F)F)c(Cl)cn2)C3)cc1F [Example 551, 4-(((1R,3r,5S)-3-((5-chloro-4-(trifluoromethyl)pyridin-2-yl)oxy)-8-azabicyclo[3.2.1]octan-8-yl)methyl)-5-cyclopropyl-N-(cyclopropylsulfonyl)-2-fluorobenzamide, trifluoroacetic acid salt] | 7.5 | – |
| C[C@@H](c1ccc(F)cc1Cl)N1C[C@H]2C[C@@H]1[C@H](Oc1cc(F)c(C(=O)NS(C)(=O)=O)cc1C1CC1)C2 [Example 450, 4-(((1R,4S,6R)-2-((S)-1-(2-chloro-4-fluorophenyl)ethyl)-2-azabicyclo[2.2.1]heptan-6-yl)oxy)-5-cyclopropyl-2-fluoro-N-(methylsulfonyl)benzamide, trifluoroacetic acid salt] | 9.9 | – |
| COCC(c1cc(Cl)cc(Cl)c1)N1CC(COc2cc(F)c(C(=O)NS(C)(=O)=O)cc2C2CC2)C1 (stereo not drawn) [Example 91, 5-Cyclopropyl-4-((1-(1-(3,5-dichlorophenyl)-2-methoxyethyl)azetidin-3-yl)methoxy)-2-fluoro-N-(methylsulfonyl)benzamide] | 14.7 | – |
| O=C(NS(=O)(=O)C1CC1)c1cc(C2CC2)c(CN2CCC(Oc3ccc(F)cc3Cl)CC2)cc1F [Example 507, trifluoroacetic acid salt] | – | IC50 (read-out: Ligand Binding Assay, 100 pM [3H]compound, membranes with hNav1.7 and β1 subunit, 18 h, room temperature, trifluoroacetic acid salt): 81.7 nM |
| CS(=O)(=O)NC(=O)c1cc(C2CC2)c(O[C@@H]2CCCN(Cc3ccccc3-c3ccccc3)C2)cc1F [Example 442, (R)-4-((1-([1,1′-biphenyl]-2-ylmethyl)piperidin-3-yl)oxy)-5-cyclopropyl-2-fluoro-N-(methylsulfonyl)benzamide, trifluoroacetic acid salt] | 3.1 | – |
| CS(=O)(=O)NC(=O)c1cc(C2CC2)c(O[C@@H]2CCCN(Cc3ccc(F)cc3C(F)(F)F)C2)cc1F [Example 34, (R)-5-cyclopropyl-2-fluoro-4-((1-(4-fluoro-2-(trifluoromethyl)benzyl)piperidin-3-yl)oxy)-N-(methylsulfonyl)benzamide] | – | IC50: 1.9 nM |
| C[C@H]1CC[C@@H](Oc2cc(F)c(C(=O)NS(C)(=O)=O)cc2C2CC2)CN1Cc1ccc(F)cc1Cl [Example 324, 4-(((3R,6S)-1-(2-chloro-4-fluorobenzyl)-6-methylpiperidin-3-yl)oxy)-5-cyclopropyl-2-fluoro-N-(methylsulfonyl)benzamide] | 2.7 | – |
| CS(=O)(=O)NC(=O)c1cc(C2CC2)c(OCC2CN(C(=O)c3cc(Cl)cc(Cl)c3)C2)cc1F [Example 134, 5-Cyclopropyl-4-((1-(3,5-dichlorobenzoyl)azetidin-3-yl)methoxy)-2-fluoro-N-(methylsulfonyl)benzamide] | 346 | – |
| C[C@H](c1ccc(F)cc1Cl)N1C[C@H]2C[C@@H]1[C@H](Oc1cc(F)c(C(=O)NS(C)(=O)=O)cc1C1CC1)C2 [Example 451, 4-(((1R,4s,6R)-2-((R)-1-(2-chloro-4-fluorophenyl)ethyl)-2-azabicyclo[2.2.1]heptan-6-yl)oxy)-5-cyclopropyl-2-fluoro-N-(methylsulfonyl)benzamide, trifluoroacetic acid salt] | 25.7 | – |
| COc1cc(OC(F)(F)F)ccc1CN1CCC[C@@H](Oc2cc(F)c(C(=O)NS(C)(=O)=O)cc2C2CC2)C1 [Example 438, (R)-5-cyclopropyl-2-fluoro-4-((1-(2-methoxy-4-(trifluoromethoxy)benzyl)piperidin-3-yl)oxy)-N-(methylsulfonyl)benzamide, trifluoroacetic acid salt] | 9.5 | – |
| CS(=O)(=O)NC(=O)c1cc(C2CC2)c(OC[C@@H]2C[C@H]3CC[C@@H](C2)N3Cc2cc(C(F)(F)F)cc(Cl)c2F)cc1F [Example 398, 4-(((1R,3S,5S)-8-(3-chloro-2-fluoro-5-(trifluoromethyl)benzyl)-8-azabicyclo[3.2.1]octan-3-yl)methoxy)-5-cyclopropyl-2-fluoro-N-(methylsulfonyl)benzamide, trifluoroacetic acid salt] | 5.1 | – |
| CS(=O)(=O)NC(=O)c1cc(C2CC2)c(OCC2CCN(Cc3cc(F)c(Br)cc3F)CC2)cc1F [Example 588, 4-((1-(4-bromo-2,5-difluorobenzyl)piperidin-4-yl)methoxy)-5-cyclopropyl-2-fluoro-N-(methylsulfonyl)benzamide] | 6.9 | – |
| CC1(COc2cc(F)c(C(=O)NS(=O)(=O)C3CC3)cc2C2CC2)CN(c2ccc(C(F)(F)F)cn2)C1 [Example 488, 5-cyclopropyl-N-(cyclopropylsulfonyl)-2-fluoro-4-((3-methyl-1-(5-(trifluoromethyl)pyridin-2-yl)azetidin-2-3-yl)methoxy)benzamide, trifluoroacetic acid salt] | 9.2 | – |

— patent publication US9546164B2 (GENENTECH, INC., priority 2013, dated 2017)
